# T1: human DNA polymerase alpha (human, UniProt P09884 1-1462)
# T1 construct: Endogenous protein in lysates of human U20S osteosarcoma cells; Other subunits of the polymerase alpha complex may have been present in the immune complexes; also called Polα; PolA gene product
# T1 sequence: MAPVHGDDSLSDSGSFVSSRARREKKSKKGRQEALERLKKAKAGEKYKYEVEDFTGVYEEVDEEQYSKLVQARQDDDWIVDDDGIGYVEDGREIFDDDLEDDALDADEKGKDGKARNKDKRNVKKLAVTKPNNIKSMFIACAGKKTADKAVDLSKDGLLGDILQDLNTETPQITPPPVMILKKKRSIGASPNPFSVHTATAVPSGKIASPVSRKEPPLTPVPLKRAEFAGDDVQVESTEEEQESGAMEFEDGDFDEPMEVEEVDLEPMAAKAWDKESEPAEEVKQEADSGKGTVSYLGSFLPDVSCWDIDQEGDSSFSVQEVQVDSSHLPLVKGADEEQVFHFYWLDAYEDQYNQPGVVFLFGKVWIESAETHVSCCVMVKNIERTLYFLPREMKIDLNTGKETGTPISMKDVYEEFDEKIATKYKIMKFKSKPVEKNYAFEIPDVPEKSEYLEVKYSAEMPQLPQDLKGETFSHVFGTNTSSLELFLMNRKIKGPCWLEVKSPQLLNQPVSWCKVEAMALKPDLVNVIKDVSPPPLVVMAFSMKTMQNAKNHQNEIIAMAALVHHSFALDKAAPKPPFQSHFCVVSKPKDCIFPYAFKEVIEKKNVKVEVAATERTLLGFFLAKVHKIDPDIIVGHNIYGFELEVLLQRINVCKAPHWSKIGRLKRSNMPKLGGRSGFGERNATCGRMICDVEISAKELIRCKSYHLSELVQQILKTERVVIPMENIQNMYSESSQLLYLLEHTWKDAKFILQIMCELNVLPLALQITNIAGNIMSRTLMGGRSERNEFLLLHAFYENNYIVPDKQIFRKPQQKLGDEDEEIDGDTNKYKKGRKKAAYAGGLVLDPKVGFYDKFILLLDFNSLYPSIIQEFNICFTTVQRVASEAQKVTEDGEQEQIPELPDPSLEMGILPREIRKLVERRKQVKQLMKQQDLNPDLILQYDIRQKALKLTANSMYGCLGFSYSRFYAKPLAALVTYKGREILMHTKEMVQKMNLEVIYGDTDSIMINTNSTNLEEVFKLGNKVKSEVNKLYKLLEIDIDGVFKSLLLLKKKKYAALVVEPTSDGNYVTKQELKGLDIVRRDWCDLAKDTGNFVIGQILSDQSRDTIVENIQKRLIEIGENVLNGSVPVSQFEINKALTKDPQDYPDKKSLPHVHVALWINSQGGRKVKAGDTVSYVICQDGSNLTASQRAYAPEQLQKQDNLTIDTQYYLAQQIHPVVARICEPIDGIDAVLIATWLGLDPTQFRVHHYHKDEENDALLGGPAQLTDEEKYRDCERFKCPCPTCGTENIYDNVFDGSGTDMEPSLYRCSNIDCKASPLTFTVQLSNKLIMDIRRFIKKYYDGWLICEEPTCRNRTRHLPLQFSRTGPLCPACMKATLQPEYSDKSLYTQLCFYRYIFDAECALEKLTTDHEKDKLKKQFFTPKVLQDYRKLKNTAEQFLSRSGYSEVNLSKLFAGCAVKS
# B1: Chk1 S345P (Chk1 phosphorylated at S345) (enzyme)
# chain: MAVPFVEDWDLVQTLGEGAYGEVQLAVNRVTEEAVAVKIVDMKRAVDCPENIKKEICINKMLNHENVVKFYGHRREGNIQYLFLEYCSGGELFDRIEPDIGMPEPDAQRFFHQLMAGVVYLHGIGITHRDIKPENLLLDERDNLKISDFGLATVFRYNNRERLLNKMCGTLPYVAPELLKRREFHAEPVDVWSCGIVLTAMLAGELPWDQPSDSCQEYSDWKEKKTYLNPWKKIDSAPLALLHKILVENPSARITIPDIKKDRWYNKPLKKGAKRPRVTSGGVSESPSGFSKHIQSNLDFSPVNSASSEENVKYSSSQPEPRTGLSLWDTSPSYIDKLVQGISFSQPTCPDHMLLNSQLLGTPGSSQNPWQRLVKRMTRFFTKLDADKSYQCLKETCEKLGYQWKKSCMNQVTISTTDRRNNKLIFKVNLLEMDDKILVDFRLSKGDGLEFKRHFLKIKGKLIDIVSSQKVWLPAT
# modifications: phosphoserine at 345 (Chk1 S345P)
# notes: also called phospho-S345 Chk1; Chk S345P
# Experiments:
# [1] = system: γ-H2A.X phosphorylation in U20S cells; assay: γ-H2A.X phosphorylation by intracellular staining and FACS (marker of double-stranded DNA breaks); assay type: cell-based, Human
# Experimental: (§1) Cell lines, drugs, and siRNA treatment materials and methods are as follow. Human U20S osteosarcoma cells are grown in DMEM (Mediatech, Herndon, Va.) supplemented with 10% FBS (JRH BioSciences, St. Louis, Mo.), 200 U/ml penicillin, 200 μg/ml streptomycin, and 300 μg/ml L-Glutamine (Cambrex). HU (Sigma, St. Louis, Mo.) is used at 1 mM for 15 hours.
# (§2) Cells are transfected with 50 nM siRNA for Chk1, 100 nM siRNA for Luciferase (Luc), PolA, PolE, PolD1, and ATR duplexes using Lipofectamine 2000 (Invitrogen, Carlsbad, Calif.) according to the manufacturer's protocol.
# Flow cytometric analysis, e.g. γ-H2AX detection for DNA damage and BrdU incorporation for cell cycle analysis, is performed as described previously (Cho et al. (2005) Cell Cycle 4:131) and analyzed with a BD LSR II (BD BioSciences, San Jose, Calif.) using FacsDIVA software.
# [2] = system: Chk1 S345 phosphorylation in U20S cells; assay: Western blot of Chk1 S345 phosphorylation in cell extracts; assay type: cell-based, Human; details: for Chk1 S345 phosphorylation after antimetabolite treatment: 1 mM HU, 5 μM Gem or 5 μM Ara-C for 2 h, FIG. 1
# Experimental: as §1, §2
# (§3) Western blot analysis of siRNA knockdowns is performed as follows. Cell pellets are trypsinized, washed with PBS, and lysed in 2×SDS sample buffer (Invitrogen, Carlsbad, Calif.). Protein extracts are separated by SDS-polyacrylamide gel electrophoresis and transfer to Immobilon®-P membrane (Millipore, Billarica, Mass.). Antibodies used in this study are obtained from Santa Cruz Biotechnology, Inc. (Santa Cruz, Calif.) (Polα, Polε, Polδ, Rad17), Cell Signaling Technology, Inc. (Danvers, Mass.) (pS345-Chk1, pT68-Chk2), Stressgen Bioreagents Corp. (San Diego, Calif.) (Chk1), and Bethyl Laboratories, Inc. (Montgomery, Tex.) (pS33-RPA 32).
# U20S cells were untreated (“-”) or treated with 1 mM HU, 5 μM Gem, or 5 μM Ara-C for 2 h. Cell extracts were prepared and immunoblotted with a phospho-Chk1 S345 antibody to show phosphorylated Chk1 (Chk1 S345) and Chk1 (loading control). […] Liu et al. (2000) Genes Dev. 14:1448; Zhao & Piwnica-Worms (2001) Mol. Cell. Biol. 21:4129; Capasso et al. (2002) J. Cell Sci. 115:4555.
# At 48 h after siRNA transfections, extracts were prepared and immunoblotted with the indicated antibodies. HU-treated cells were treated with 1 mM HU for 7 h before harvest.
# [3] = system: RPA32 S33 phosphorylation in U20S cells; assay: Western blot of RPA32 S33 phosphorylation in cell extracts; assay type: cell-based, Human; details: 1 mM HU 15 h, cells transfected with luciferase (control) siRNA, FIG. 10
# Experimental: as §1, §2, §3
# Cells were tested for Chk1 and RPA32 phosphorylation as a function of depletion of DNA polymerases alone and in combination with depletion of Chk1. […]
# [4] = system: Chk1 S345 in Polα complexes, U20S cells; assay: Time course of Chk1 S345 accumulation in Polα immunoprecipitates; assay type: cell-based, Human; details: HU for 0.5, 1, 2 and 15 h; first time point tested; FIG. 9
# Experimental: Immunoprecipitation is performed as follows. Cell pellets are lysed in LT250 buffer (50 mM Tris-HCl pH 7.4, 250 mM NaCl, 5 mM EDTA, 0.1% NP-40, 10% glycerol, 1 mM DTT, 1:100 dilution of phosphatase inhibitor set I and II, and protease inhibitor cocktail set 111 (Calbiochem, San Diego, Calif.). Protein concentrations are determined using the Bio-Rad Protein Assay (Bio-Rad, Hercules, Calif.). For immunoprecipitation, protein lysates (2 mg) are incubated with anti-Polα (SJK 132-20) antibody cross-linked to ImmunoPure Protein G beads for 4 hours at 4° C. Pab419 monoclonal Ab against SV40 T antigen is typically used as a negative control.
# (§4) A time course of HU induction of Chk1 phosphorylation was performed. U20S cells were treated with HU for 0.5, 1, 2 and 15 h, and protein extracts were prepared for immunoprecipitation. Polα was immunoprecipitated with Polα antibodies (SJK132-20) cross-linked to protein G. Western blots were performed using anti-Polα, anti-Chk1, and anti-Chk1 S345 antibodies (FIG. 9). Chk1 phosphorylation was complete at even the earliest timepoint, and both Chk1 and Chk1 S345P co-immunoprecipitated with Polα.
# [5] = target: T1, human DNA polymerase alpha; assay: immunoprecipitation with SJK132-20, HU time course, western blot
# Experimental: as §4
molecule,measurement,setting,value
COc1ccc(CNC(=O)c2cccc(-c3cnc(N)c(C(=O)N[C@H]4CCCNC4)n3)c2)cc1 [3-amino-6-{3-[({[4-(methyloxy)phenyl]methyl}amino)carbonyl]phenyl}-N-[(3S)-piperidin-3-yl]pyrazine-2-carboxamide],percentage of cells exhibiting substantial double-stranded DNA breaks (γ-H2AX),"[1]; Chk1 inhibitor 2.5 μM, 2 hours, combined with siRNA ablation of PolA, controls less than 1%, FIG. 4B",over 50%
"Nc1ccn([C@@H]2O[C@H](CO)[C@@H](O)[C@@H]2O)c(=O)n1 [Ara-C, cytarabine]",Chk1 S345 phosphorylation after antimetabolite treatment,[2],induced substantial phosphorylation of Chk1
"Nc1ccn([C@@H]2O[C@H](CO)[C@@H](O)C2(F)F)c(=O)n1 [Gem, gemcitabine]",Chk1 S345 phosphorylation after antimetabolite treatment,[2],induced substantial phosphorylation of Chk1
"NC(=O)NO [HU, hydroxyurea]",H2A.X phosphorylation compared to control samples,"[1]; FIG. 4A, average of three experiments",modestly increase
same,cells exhibiting DNA damage compared with control cultures,"[1]; FIGS. 2B and 2C, siRNA 48 h, HU 1 mM with control siRNA",approximately 10 fold
same,Chk1 S345 phosphorylation in whole cell extracts,"[2]; 1 mM HU 15 h, cells transfected with luciferase (control) siRNA, FIG. 10",strong Chk1 S345 phosphorylation
same,Chk1 S345 phosphorylation after antimetabolite treatment,[2],induced substantial phosphorylation of Chk1
same,RPA32 phosphorylation in whole cell extracts,[3],low level RPA32 phosphorylation
same,time at which Chk1 S345 response in Polα complexes was complete,[4],≤ 0.5 h
B1,binding result,[5],binds
